Experimental data from patent US11267815B2, “Class of amino-substituted nitrogen-containing fused ring compounds, preparation method therefor, and use thereof” (SHANGHAI RINGENE BIOPHARMA CO., LTD., priority 2017, dated 2022).

Columns and labels:
[1] = test system: various tumor cells (HuH-7, SNU-16, KG1, UM-UC-14, RT-112 etc.); assay: Proliferation inhibitory activity on various tumor cells (SRB or CCK8); assay type: cell-based; details: SRB or CCK8 method; read-out: proliferation inhibitory activities on various tumor cells
[2] = test system: EGFR, VEGFR, PDGFR, FGFR, RET, MET, Src, Lyn, Syk, MEK, CDK, RA, ROS; assay: Inhibitory activities on different kinases (selectivity); assay type: biochemical; details: versus different kinases
Protocol: The inhibitory activities of the compounds of the present disclosure on different kinases such as EGFR, VEGFR, PDGFR, FGFR, RET, MET, Src, Lyn, Syk, MEK, CDK, RA, ROS, etc., were also determined.

[3] = Pharmacokinetics in rats or mice after intragastric and intravenous administration; assay type: in vivo, SD rats or BALB/c mice; details: iv 3 mg/kg, intragastric 10 mg/kg
Protocol: (3) LC/MS/MS method was used to measure the drug concentration in plasma at different time points after the embodiment compounds were administered to the rats or mice by intragastric administration and intravenous injection respectively, so as to study the pharmacokinetic behavior of the compounds of the present disclosure in rats or mice and evaluate the pharmacokinetic characteristics thereof. […]

[4] = ADME tests: liver microsome metabolic stability and direct inhibition test; assay type: in vitro ADME; details: metabolic stability, direct inhibition test
Protocol: (1) Metabolic stability test: 150 μL system of liver microsome (final concentration 0.5 mg/mL) was used for metabolic stability incubation, the system contained NADPH (final concentration 1 mM), 1 μM test compound and positive control Midazolam or negative control Atenolol, then the reaction was terminated with Tinidazole-containing acetonitrile at 0 min, 5 min, 10 min and 30 min respectively, and the mixtures were vortexed for 10 minutes and centrifuged for 10 minutes at 15000 rmp, 50 μL of the supernatants were added into 96-well plate for injection. The metabolic stability of the compounds was calculated by measuring the relative reduction of the original drug.
(2) Direct inhibition test (DI test): Direct inhibition incubation was carried out with 100 μL system of human liver microsome (final concentration 0.2 mg/mL), the system containing NADPH (final concentration 1 mM), 10 μM compound, positive inhibitor cocktail (Ketoconazole 10 μM, Quinidine 10 μM, Sulfaphenazolum 100 μM, α-Naphthoflavone 10 μM, Tranylcypromine 1000 μM), negative control (BPS containing 0.1% DMSO) and mixed probe substrates (Midazolam 10 μM, Testosterone 100 μM, Dextromethorphan […], Diclofenac 20 μM, Phenacetin 100 μM, Mephenytoin 100 μM) was incubated for 20 minutes and then the reaction was terminated. The relative activity of enzymes was calculated by measuring the relative production of metabolites.

xenograft tumors = assay: Xenograft tumor growth in nude mice; assay type: in vivo; details: oral, daily for three weeks, lower dose (even less than 20 mg/kg)
Protocol: 1. The tumor tissue in vigorous growth period was cut into about 1.5 mm^3, and subcutaneously inoculated into the right armpit of nude mice under sterile condition. The diameter of the subcutaneous transplanted tumors in nude mice was measured with vernier caliper, and the animals were randomly divided into groups when the average volume of the tumor reached about 130 mm^3. The embodiment compounds (prepared to the desired concentration with water for injection containing 1% Tween 80 for later use) were orally administered at a predetermined dose every day for three weeks, while a same amount of menstruum was administered in the menstruum control group. During the whole experiment, the diameter of the xenograft tumor was measured twice a week and the weight of the mice was weighed at the same time. The tumor volume (TV) was calculated by the formula: TV=½×a×b^2, where a and b represent length and width respectively. According to the measured results, the relative tumor volume (RTV) was calculated by the formula: RTV=Vt/V0, where V0 was the tumor volume measured when the mice were divided into cages for administration (i.e., d0) and Vt was the tumor volume at each measurement. […]

FGFR4 = FGFR4 (Homo sapiens (Human), UniProt P22455); assay: Inhibitory activity on kinase FGFR4 (Caliper mobility shift); assay type: biochemical; details: read-out: FGFR4 IC50
Protocol: (§1) (1). Preparation of 1×Kinase buffer; (2) Preparation of the gradient concentrations of the compounds: the concentration of the compounds to be tested started from 10 μM, which was 3-fold diluted to prepare 10 dilutions, and then tested in duplicated wells. The compounds were 100-fold serially diluted into 10 dilutions with different final concentrations in 96-well plates, each of which was further diluted with 1×Kinase buffer to prepare an intermediate dilution having a concentration of 5 times the final concentration; (3) adding 5 μL of each of the prepared compound solution into the compound wells of 384-well plates, and each concentration set single well; adding 5 μL of 5% DMSO into negative control wells and positive control wells respectively; (4) preparing a kinase solution having a concentration of 2.5 times the final concentration with 1×kinase buffer; (5) adding 10 μL of kinase solution at a concentration of 2.5 times the final concentration into the compound wells and the positive control wells respectively; and adding 10 μL of 1×Kinase buffer into the negative control wells; (6) centrifuging at 1000 rpm for 30 seconds, and incubating at room temperature for 10 minutes after shaking and mixing evenly; (7) preparing a mixed solution of ATP and Kinase substrate 22 having a concentration of 2.5 times the final concentration with 1×Kinase Buffer; (8) adding 10 μL of the mixed solution of ATP and substrate at a concentration of 2.5 times the final concentration to initiate the reaction; (9) Centrifuging the 384-well plates at 1000 rpm for 30 seconds, and incubating at 28° C. for corresponding time respectively after shaking and mixing; (10) adding 30 μL of stop detection solution to stop the kinase reaction, centrifuging at 1000 rpm for 30 seconds, and shaking and mixing the mixture evenly; (11) reading the conversion rate by Caliper Ezreader II. The dose-effect curve was fitted by the log (inhibitor) vs. response-variable slope of GraphPad Prism 5 with the log value of concentration as the X axis and the percentage inhibition rate as the Y axis, then the IC50 value of each compound on the enzyme activity was obtained.

Hep3B cells = assay: Hep3B cell proliferation (CellTiter-Glo, 72 hours); assay type: cell-based; details: read-out: Hep3B IC50
Protocol: 1. Test method: inoculating Hep3B cells (ATCC) in logarithmic growth phase at an appropriate density in a 96-well culture plate, with 100 μL per well. After overnight culture, different concentrations of compounds were added to stay for 72 hours, and menstruum control group (negative control) was set, and the incubation was performed under the condition of 5% CO2 at 37° C. Adding 10 mM compound stock solution to the cells, after the cells were incubated with the compounds for 72 hours, the effects of the compounds on cell proliferation were determined by CellTiter-Glo (Promega) method. 30 μL CTG reagent was added to each well and the resulting mixtures were placed in a 37° C. incubator for 2-4 hours. Then the plate was read by a full-wavelength microplate enzyme reader Envision at a […].
The inhibition rates (%) of the compounds on tumor cell growth were calculated by the following formula: inhibition rate (%)=(OD negative control well−OD administration well)/OD negative control well×100%. IC50 values were obtained by four parameters regression using Graphpad Prism 5 software.

FGFR1 = FGFR1 (Homo sapiens (Human), UniProt P11362); assay: Inhibitory activity on kinase FGFR1 (Caliper mobility shift); assay type: biochemical; details: read-out: FGFR1 IC50
Protocol: as §1

Chain of FGFR4 (P22455 22-802): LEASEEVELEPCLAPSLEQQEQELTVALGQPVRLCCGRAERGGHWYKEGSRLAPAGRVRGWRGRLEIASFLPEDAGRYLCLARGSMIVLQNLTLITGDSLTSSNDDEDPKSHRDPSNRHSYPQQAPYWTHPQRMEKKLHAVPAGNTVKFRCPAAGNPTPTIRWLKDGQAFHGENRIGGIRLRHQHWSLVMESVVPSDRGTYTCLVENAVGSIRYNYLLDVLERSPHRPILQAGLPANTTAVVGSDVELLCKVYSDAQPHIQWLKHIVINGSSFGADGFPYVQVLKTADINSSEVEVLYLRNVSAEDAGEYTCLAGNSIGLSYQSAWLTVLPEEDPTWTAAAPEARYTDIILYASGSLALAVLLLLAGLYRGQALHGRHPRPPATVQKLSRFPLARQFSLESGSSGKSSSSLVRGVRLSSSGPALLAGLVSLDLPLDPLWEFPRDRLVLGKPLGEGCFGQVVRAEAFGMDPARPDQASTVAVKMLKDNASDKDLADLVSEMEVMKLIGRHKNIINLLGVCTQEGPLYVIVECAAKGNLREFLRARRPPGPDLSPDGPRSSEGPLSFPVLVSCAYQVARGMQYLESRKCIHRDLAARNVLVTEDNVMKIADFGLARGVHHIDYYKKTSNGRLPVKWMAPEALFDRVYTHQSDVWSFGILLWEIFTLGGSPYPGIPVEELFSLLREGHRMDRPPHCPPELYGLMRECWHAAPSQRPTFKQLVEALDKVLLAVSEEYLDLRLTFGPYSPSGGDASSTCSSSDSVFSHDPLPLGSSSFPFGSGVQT
Chain of FGFR1 (P11362 22-822): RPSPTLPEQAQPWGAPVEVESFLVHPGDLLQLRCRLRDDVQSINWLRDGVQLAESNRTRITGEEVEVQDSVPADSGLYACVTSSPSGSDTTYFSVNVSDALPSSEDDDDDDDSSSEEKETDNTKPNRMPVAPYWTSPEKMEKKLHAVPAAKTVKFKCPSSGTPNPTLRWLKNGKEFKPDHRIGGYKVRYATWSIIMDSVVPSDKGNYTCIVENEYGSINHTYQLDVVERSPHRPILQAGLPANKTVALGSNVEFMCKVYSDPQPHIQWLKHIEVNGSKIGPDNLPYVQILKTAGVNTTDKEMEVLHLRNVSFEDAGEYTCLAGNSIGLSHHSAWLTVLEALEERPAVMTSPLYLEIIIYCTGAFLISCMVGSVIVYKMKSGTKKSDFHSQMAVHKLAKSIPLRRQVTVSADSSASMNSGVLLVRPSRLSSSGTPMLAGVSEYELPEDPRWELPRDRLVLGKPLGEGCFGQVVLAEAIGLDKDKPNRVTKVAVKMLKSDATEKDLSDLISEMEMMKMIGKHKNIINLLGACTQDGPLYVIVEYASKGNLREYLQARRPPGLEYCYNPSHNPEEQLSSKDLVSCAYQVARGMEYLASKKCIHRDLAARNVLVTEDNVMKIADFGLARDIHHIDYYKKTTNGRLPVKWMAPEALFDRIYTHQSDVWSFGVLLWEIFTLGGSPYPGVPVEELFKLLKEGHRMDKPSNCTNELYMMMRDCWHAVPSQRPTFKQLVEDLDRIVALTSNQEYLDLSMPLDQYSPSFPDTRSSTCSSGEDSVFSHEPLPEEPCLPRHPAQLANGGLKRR

## C=CC(=O)Nc1ccc(-c2cn3c(n2)c(-c2c(Cl)c(OC)cc(OC)c2Cl)cc2cnc(NC)nc23)cc1 [Embodiment 17, N-(4-(6-(2,6-dichloro-3,5-phenyldimethoxyphenyl)-2-(methylamine)imidazo[1′,2′:1,6]pyrido[2,3-d]pyrimidin-8-yl)phenyl)acrylamide]
[1]
  IC50: < 100 nM
[2]
  kinase selectivity: greater than 100 times
[3]
  absorption and metabolism properties in rats and mice: good absorption and metabolism properties in rats and mice
[4]
  ADME properties: better ADME properties
Xenograft tumors
  anti-tumor rate: more than 80%
FGFR4
  IC50: > 200 nM
Hep3B cells
  IC50: 20 to 200 nM
FGFR1
  IC50: < 20 nM
